Data as given in patent US20230011269A1, “PHARMACEUTICAL COMPOSITION COMPRISING A POTENT INHIBITOR OF URAT1” (Ardea Biosciences, Inc., priority 2015, published 2023).
Like-named read-outs stand apart in the source and are kept apart here.

Legend:
urine urate excretion = assay: Phase 1 single dose study, immediate release formulations: urine urate excretion; assay type: in vivo, human; conditions: 5 mg/Fasted
From the text: (§1) A phase 1, randomized, double-blind, placebo-controlled study in healthy adult male volunteers evaluated single rising doses and the preliminary food effect for 2-((3-(4-cyanonaphthalen-1-yl)pyridine-4-yl)thio)-2-methylpropanoic acid at 6 dose groups with 8 subjects per group. […] Subjects in each dose group were randomized to receive a single dose of either 2-((3-(4-cyanonaphthalen-1-yl)pyridine-4-yl)thio)-2-methylpropanoic acid (6 subjects) or placebo (2 subjects). 2-((3-(4-cyanonaphthalen-1-yl)pyridine-4-yl)thio)-2-methylpropanoic acid was supplied as 1 mg oral solution, 2 mg oral solution, 5 mg tablets, or 20 mg tablets (depending on dose level).
The mean plasma concentration-time profiles for the IR formulations under fed and fasted conditions are depicted in FIGS. 3a and 3b. Absorption of 2-((3-(4-cyanonaphthalen-1-yl)pyridine-4-yl)thio)-2-methylpropanoic acid following a single oral dose under fasted conditions was rapid. […] When 2-((3-(4-cyanonaphthalen-1-yl)pyridine-4-yl)thio)-2-methylpropanoic acid was administered with food, slightly slower absorption and lower exposure were observed. […] Important pharmacodynamic parameters related to the serum Uric Acid lowering effects are shown in the following two tables: […]

[1] = Phase 1 single dose study, immediate release formulations: plasma pharmacokinetics; assay type: in vivo, human; conditions: for AUC(0-t): read-out: AUC0-24
From the text: as §1
Segment A evaluated single rising doses of 2 mg, 5 mg, 20 mg and 40 mg and the preliminary food effect of 2-((3-(4-cyanonaphthalen-1-yl)pyridine-4-yl)thio)-2-methylpropanoic acid at the 5 mg and 20 mg doses followed by multiple ascending doses of 1 mg, 5 mg and 10 mg qd in Segment B.
The oral solution was prepared by the clinical pharmacist in bulk within 24 hours of administration. The oral solution of 2-((3-(4-cyanonaphthalen-1-yl)pyridine-4-yl)thio)-2-methylpropanoic acid (0.033 mg/mL concentration) was prepared as a mixture of the appropriate amount of 2-((3-(4-cyanonaphthalen-1-yl)pyridine-4-yl)thio)-2-methylpropanoic acid powder, anhydrous dibasic sodium phosphate, and sterile water for irrigation; placebo oral solution was prepared as a vehicle using anhydrous dibasic sodium phosphate and sterile water for irrigation. […] Plasma samples were collected at the following time-points in relation to dosing on Day 1: pre-dose (within 30 minutes before dosing) and at 0.25, 0.5, 0.75, 1, 1.5, 2, 2.5, 3, 4, 5, 6, 8, 10, 12, 24, 30, 36, 48, 54, 60, and 72 hours post-dose, and were analysed for 2-((3-(4-cyanonaphthalen-1-yl)pyridine-4-yl)thio)-2-methylpropanoic acid content.

[2] = mg of urate per urine collection period
[3] = 2 mg single dose, Fasted, oral solution, Group 5, N = 6, Geomean
[4] = 5 mg single dose, Fasted, 1 × 5 mg tablet, Group 4, N = 6, Geomean
[5] = 5 mg single dose, Fed, 1 × 5 mg tablet, Group 6, N = 6, Geomean
[6] = 20 mg single dose, Fasted, 1 × 20 mg tablet, Group 1, N = 6, Geomean
[7] = 20 mg single dose, Fed, 1 × 20 mg tablet, Group 3, N = 6, Geomean
[8] = 40 mg single dose, Fasted, 2 × 20 mg tablet, Group 2, N = 6, Geomean

Which “Urine Urate Excretion 0-6 hrs/0-24 hrs” value (urine urate excretion) does the source give for `CC(C)(Sc1ccncc1-c1ccc(C#N)c2ccccc12)C(=O)O` [2-((3-(4-cyanonaphthalen-1-yl)pyridine-4-yl)thio)-2-methylpropanoic acid] here?
The value was 0.468.

And the “Urine Urate Excretion UUE 0-6 hrs” value (urine urate excretion; [2])?
Its value is 509 mg.

What about the “Urine Urate Excretion UUE 6-12 hrs” value (urine urate excretion; [2]) of the same molecule?
Its value is 231 mg.

What about the “Urine Urate Excretion UUE 12-24 hrs” value (urine urate excretion; [2]) of the same molecule?
The value was 347 mg.

What about the “AUC∞” value [1, 3] of the same molecule?
The value was 45 ng·h/mL.

And the Cmax [1, 3]?
Its Cmax is 36.4 ng/mL.

And the t1/2 [1, 3]?
Its t1/2 is 12.1 h.

And the Tmax ([1]; 2 mg single dose, Fasted, oral solution, Group 5, N = 6, median)?
Its Tmax is 0.500 h.

And the “AUC∞” value [1, 4]?
Its value is 121 ng·h/mL.

And the Cmax [1, 4]?
Its Cmax is 72.9 ng/mL.

What about the t1/2 [1, 4] of the same molecule?
Its t1/2 is 14.2 h.

And the “AUC∞” value [1, 5]?
Its value is 92.8 ng·h/mL.

And the Cmax [1, 5]?
The Cmax was 45.7 ng/mL.

What about the t1/2 [1, 5] of the same molecule?
The t1/2 was 12.7 h.

What about the Tmax ([1]; 5 mg single dose, Fed, 1 × 5 mg tablet, Group 6, N = 6, median) of the same molecule?
Its Tmax is 1.25 h.

And the Cmax ([1]; 5 mg/Fasted, immediate release, read-out: Cmax)?
The Cmax was 72.9 ng/mL.

And the Cmax [1, 6]?
Its Cmax is 384 ng/mL.

And the t1/2 [1, 6]?
Its t1/2 is 10.9 h.

What about the Tmax ([1]; 20 mg single dose, Fasted, 1 × 20 mg tablet, Group 1, N = 6, median) of the same molecule?
The Tmax was 0.500 h.

What about the “AUC∞” value [1, 7] of the same molecule?
Its value is 415 ng·h/mL.

And the Cmax [1, 7]?
The Cmax was 181 ng/mL.

What about the t1/2 [1, 7] of the same molecule?
Its t1/2 is 13.8 h.

And the Tmax ([1]; 20 mg single dose, Fed, 1 × 20 mg tablet, Group 3, N = 6, median)?
The Tmax was 1.25 h.

What about the “AUC∞” value [1, 8] of the same molecule?
Its value is 1270 ng·h/mL.

What about the t1/2 [1, 8] of the same molecule?
Its t1/2 is 9.51 h.

What about the Tmax ([1]; 40 mg single dose, Fasted, 2 × 20 mg tablet, Group 2, N = 6, median) of the same molecule?
The Tmax was 0.750 h.

What about the AUC(0-t) ([1]; male, human, plasma, oral, 2 mg, 2 mg/Fasted, immediate release) of the same molecule?
Its AUC(0-t) is 38.8 ng·h/mL.

What about the AUC(0-t) ([1]; male, human, plasma, oral, 5 mg, 5 mg single dose, Fasted, 1 × 5 mg tablet, Group 4, N = 6, Geomean) of the same molecule?
Its AUC(0-t) is 102 ng·h/mL.

And the Tmax ([1]; male, human, plasma, oral, 5 mg, 5 mg single dose, Fasted, 1 × 5 mg tablet, Group 4, N = 6, median, read-out: Tmax)?
Its Tmax is 0.625 h.

And the AUC(0-t) ([1]; male, human, plasma, oral, 5 mg, 5 mg single dose, Fed, 1 × 5 mg tablet, Group 6, N = 6, Geomean)?
The AUC(0-t) was 75.2 ng·h/mL.

What about the AUC(0-t) ([1]; male, human, plasma, oral, 5 mg, 5 mg/Fasted, immediate release) of the same molecule?
Its AUC(0-t) is 102 ng·h/mL.

What about the AUC(0-t) ([1]; male, human, plasma, oral, 20 mg, 20 mg single dose, Fasted, 1 × 20 mg tablet, Group 1, N = 6, Geomean) of the same molecule?
The AUC(0-t) was 463 ng·h/mL.

And the AUC(0-t) ([1]; male, human, plasma, oral, 20 mg, 20 mg single dose, Fed, 1 × 20 mg tablet, Group 3, N = 6, Geomean)?
Its AUC(0-t) is 350 ng·h/mL.

And the AUC(0-t) ([1]; male, human, plasma, oral, 20 mg, 20 mg/Fasted, immediate release)?
The AUC(0-t) was 463 ng·h/mL.

What about the AUC(0-t) ([1]; male, human, plasma, oral, 40 mg, 40 mg single dose, Fasted, 2 × 20 mg tablet, Group 2, N = 6, Geomean) of the same molecule?
Its AUC(0-t) is 1070 ng·h/mL.

And the AUC(0-t) ([1]; male, human, plasma, oral, 40 mg, 40 mg/Fasted, immediate release)?
The AUC(0-t) was 1070 ng·h/mL.

What about the AUC(0-inf) ([1]; male, human, plasma, oral, 20 mg single dose, Fasted, 1 × 20 mg tablet, Group 1, N = 6, Geomean) of the same molecule?
Its AUC(0-inf) is 540 ng·h/mL.

What about the Cmax ([1]; male, human, plasma, oral, 40 mg single dose, Fasted, 2 × 20 mg tablet, Group 2, N = 6, Geomean, read-out: Cmax) of the same molecule?
The Cmax was 760 ng/mL.

And the AUC(0-t) ([1]; male, human, plasma, po, 2 mg, 2 mg single dose, Fasted, oral solution, Group 5, N = 6, Geomean)?
The AUC(0-t) was 38.8 ng·h/mL.

What about the Tmax ([1]; male, human, plasma, po, 5 mg, immediate release tablet, oral, fasted, human, read-out: Tmax (called mean in b5, median)) of the same molecule?
The Tmax was 0.6 h.

And the Tmax ([1]; male, human, plasma, po, 5 mg, immediate release tablet, oral, fasted, human, read-out: time at which the peak plasma concentration is observed (Tmax), range)?
Its Tmax is 0.25 to 1.5 h.

What about the Cmax ([1]; male, human, plasma, po, 5 mg, read-out: geometric mean maximum plasma concentration (Cmax)) of the same molecule?
Its Cmax is ~73 ng/mL.
